In PubChem BioAssay (NCI):
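Method: 48-hour compound exposure of cells in 96-well plates, five concentrations, linear interpolation of endpoints. GI50: concentration for 50% inhibition of growth. Definition used: TGI = concentration required for complete inhibition of growth.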

Key:
Test in all cases: growth of human tumour cells (NCI), 48 h
UO-31 renal = tested on: UO-31 renal
BT-549 breast = tested on: BT-549 breast
SNB-75 CNS = tested on: SNB-75 CNS
HCT-15 colon = tested on: HCT-15 colon
HT29 colon = tested on: HT29 colon
SF-295 CNS = tested on: SF-295 CNS
OVCAR-3 ovarian = tested on: OVCAR-3 ovarian
M14 melanoma = tested on: M14 melanoma
RPMI-8226 leukemia = tested on: RPMI-8226 leukemia
OVCAR-5 ovarian = tested on: OVCAR-5 ovarian

SMILES	GI50 (UO-31 renal)	TGI (UO-31 renal)	GI50 (BT-549 breast)	TGI (BT-549 breast)	GI50 (SNB-75 CNS)	TGI (SNB-75 CNS)	GI50 (HCT-15 colon)	TGI (HCT-15 colon)	GI50 (HT29 colon)	TGI (HT29 colon)	GI50 (SF-295 CNS)	TGI (SF-295 CNS)	GI50 (OVCAR-3 ovarian)	GI50 (M14 melanoma)	TGI (M14 melanoma)	GI50 (RPMI-8226 leukemia)	TGI (RPMI-8226 leukemia)	GI50 (OVCAR-5 ovarian)	TGI (OVCAR-5 ovarian)	TGI (OVCAR-3 ovarian)
O=c1[nH]c(=O)n(C2CC(O)C(COP(=O)(OCc3ccc([N+](=O)[O-])o3)N(CCCCCl)CC(O)CO)O2)cc1F (centres undefined)	0.174 µM	> 100 µM	0.663 µM	> 100 µM	2.82 µM	> 100 µM	4.53 µM	> 100 µM	1.66 µM	> 100 µM	0.295 µM	> 25.1 µM	0.39 µM	0.365 µM	2.23 µM	< 0.01 µM	> 49.8 µM	> 100 µM	> 100 µM	
CCCCCCCCCCCCCCCCCC[n+]1ccc2c(C)c3c(c(C)c2c1)c1cc(O)ccc1n3CC	3.39 µM	18.7 µM	2.72 µM	10.5 µM	2.27 µM	12 µM	3.34 µM	47.1 µM	1.14 µM	15.2 µM	1.42 µM	4.3 µM	1.88 µM	1.43 µM	3.34 µM	1.58 µM	17.5 µM	4.38 µM	24.8 µM	4.68 µM
CNCCCNCCCCNCCCN1C(=O)c2ccc3c4c(ccc(c24)C1=O)C(=O)N(CCCNCc1ccccc1OC)C3=O	4.31 µM	36.8 µM	3.4 µM	15.8 µM	1.05 µM	13.3 µM	4.27 µM	70.1 µM	3.36 µM	16.4 µM	1.33 µM	12.8 µM	2.93 µM	2.63 µM	13.3 µM	3 µM	22.8 µM	5.35 µM	26.9 µM	11.3 µM
CN1CCN(C(=O)c2cc(-c3ccc4ncnc(N5CCc6cc(F)c(Cl)cc65)c4c3)cnc2N)CC1	0.0996 µM	4.42 µM	0.181 µM	1.57 µM	0.0512 µM	0.704 µM	0.251 µM	2.63 µM	0.216 µM	4.57 µM	0.288 µM	1.84 µM	0.248 µM	0.338 µM	4.75 µM	0.124 µM	0.557 µM	0.29 µM	13.8 µM	1.49 µM
O=C(/C=C\c1cccc([N+](=O)[O-])c1)/C=C/c1cccc([N+](=O)[O-])c1	1.7 µM	4.9 µM	3.48 µM	12.5 µM	13.3 µM	66.6 µM	5.1 µM	> 100 µM	1.4 µM	3.32 µM	2.37 µM	7.77 µM	2.18 µM	2.49 µM	7.33 µM	0.43 µM	1.6 µM	19.7 µM	> 100 µM	4.32 µM
COc1ccc(-c2cc(-c3ccc(C)cc3)nc3nc(=S)[nH]c(N)c23)cc1	19.2 µM	48 µM	27.1 µM	60.4 µM	66.2 µM	> 100 µM	23.9 µM	64.4 µM	19.1 µM	> 100 µM	15.9 µM	34.9 µM	13.6 µM	19.1 µM	37.4 µM	18.4 µM	44.4 µM	39.3 µM	96.9 µM	30.4 µM
